Inhibition and IC50 data for 13 compounds are collected here from patent US7579356B2, “Thia-tetraazaacenaphthylene kinase inhibitors” (Janssen Pharmaceutica NV, priority 2005, dated 2009).

Holding throughout (format): biochemical
The target in one test is T1, c-Src kinase (human) (Homo sapiens, UniProt P12931).
T1 construct: purchased Upstate Biotechnology, Lake Placid, N.Y
Description: c-Src Kinase Assay. Conditions: test concentration of 2 μM; multiple values are separate assay results. The procedure: A mixture of a 10× kinase buffer (80 mM MOPS at pH 7.0, 2 mM EDTA and 100 mM Magnesium Chloride), ATP (5 μM final from a 10 mM stock), a Cdc2 peptide KVEKIGEGTYGVVYK (100 μM final from a 2.5 mM stock), γ-^33P ATP (10 μCl/μL stock) and water (for a total of 20 μL/well) was added to each well of a Streptavidin Flashplate.
Test compound in 100% DMSO (0.5 μL) was added to the appropriate wells. Diluted c-Src kinase (human) (Accession Number SWISS-PROT P12931) (Upstate Biotechnology, Lake Placid, N.Y.) (diluted in a buffer consisting of 20 mM MOPS at pH 7.0, 1 mM EDTA, β-mercaptoethanol (0.1%), Brij-35 (0.01%), glycerol (5%), and 1 mg/mL bovine serum albumin) (2.5 μL) was added to the wells to initiate the reactions. The reaction plates were incubated at 30° C. for 40 min. The reaction was terminated by the addition of a 3% phosphoric acid solution (5 μL). The reaction product (10 μL) was spotted onto a P30 filtermat and washed for 5 minutes in phosphoric acid (75 mM). The wash sequence was repeated two more times, followed with one final wash in methanol. The plates were then dried, sealed and read on the TopCount scintillation counter after adding 30 μL scintillation fluid.
The c-Src inhibition values were derived using the percent inhibition formula provided in Example 164 and are shown as percent in Table 2 at a test concentration of 2 μM. For those compounds with an IC50, the IC50 value in μM is shown in parentheses. For compounds with multiple test values, each value represents a separate assay result.

Another test deals with T2, Lyn kinase (human) (Homo sapiens, UniProt P07948).
T2 construct: purchased Upstate Biotechnology, Lake Placid, N.Y
T2 sequence (P07948 whole entry): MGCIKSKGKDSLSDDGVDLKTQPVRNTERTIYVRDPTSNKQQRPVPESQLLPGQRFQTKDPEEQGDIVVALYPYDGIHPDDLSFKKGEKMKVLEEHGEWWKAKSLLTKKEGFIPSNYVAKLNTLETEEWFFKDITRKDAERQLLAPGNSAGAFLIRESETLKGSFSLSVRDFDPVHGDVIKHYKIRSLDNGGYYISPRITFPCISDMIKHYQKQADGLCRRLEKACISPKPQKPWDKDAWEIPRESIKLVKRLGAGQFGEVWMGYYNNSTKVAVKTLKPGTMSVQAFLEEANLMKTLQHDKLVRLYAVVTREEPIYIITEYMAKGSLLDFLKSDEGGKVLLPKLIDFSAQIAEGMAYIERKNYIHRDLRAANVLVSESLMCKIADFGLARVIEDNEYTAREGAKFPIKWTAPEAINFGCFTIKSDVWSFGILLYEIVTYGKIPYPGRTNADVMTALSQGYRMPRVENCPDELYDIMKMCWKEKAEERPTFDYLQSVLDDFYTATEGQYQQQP
Description: Lyn Kinase Assay. The note with it: test concentration of 2 μM. The procedure: A mixture of a 10× kinase buffer (500 mM MOPS at pH 7.5, 1 mM EGTA, 1 mM Sodium Vanadate, 1% β-mercaptoethanol and 100 mM Magnesium Acetate), ATP (5 μM final from a 10 mM stock), polyGluTyr (0.1 mg/mL final from a 1 mg/mL stock), γ-^33P ATP (10 μCl/μL stock) and water (for a total of 20 μL/well) was added to each well of a Streptavidin Flashplate.
Test compound in 100% DMSO (0.5 μL) was added to the appropriate wells. Diluted Lyn kinase (human)(Accession Number EMBL M16038) (Upstate Biotechnology, Lake Placid, N.Y.) (diluted in a buffer consisting of 50 mM Tris at pH 7.5, 0.1 mM EGTA, Sodium Vanadate (0.1 mM), β-mercaptoethanol (0.1%) and 1 mg/mL bovine serum albumin) (2.5 μL) was added to the wells to initiate the reactions.
The reaction plates were incubated at 30° C. for 40 min. The reaction was terminated by the addition of a 3% phosphoric acid solution (5 μL). The reaction product (10 μL) was spotted onto a P30 filtermat and washed for 5 minutes in phosphoric acid (75 mM). The wash sequence was repeated two more times, followed with one final wash in methanol. The plates were then dried, sealed and read on the TopCount scintillation counter after adding 30 μL scintillation fluid.
The Lyn inhibition values were derived according to the procedure described in Example 164 and are shown as percent in Table 3 at a test concentration of 2 μM. For those compounds with an IC50, the IC50 value in μM is shown in parentheses. For compounds with multiple test values, each value represents a separate assay result.

In the next test the target is T3, HER-2 (Homo sapiens, UniProt P04626).
T3 construct: His6 with thrombin site (N); purchased Proqinase (Freiburg, Germany)
T3 sequence (P04626 679-1255): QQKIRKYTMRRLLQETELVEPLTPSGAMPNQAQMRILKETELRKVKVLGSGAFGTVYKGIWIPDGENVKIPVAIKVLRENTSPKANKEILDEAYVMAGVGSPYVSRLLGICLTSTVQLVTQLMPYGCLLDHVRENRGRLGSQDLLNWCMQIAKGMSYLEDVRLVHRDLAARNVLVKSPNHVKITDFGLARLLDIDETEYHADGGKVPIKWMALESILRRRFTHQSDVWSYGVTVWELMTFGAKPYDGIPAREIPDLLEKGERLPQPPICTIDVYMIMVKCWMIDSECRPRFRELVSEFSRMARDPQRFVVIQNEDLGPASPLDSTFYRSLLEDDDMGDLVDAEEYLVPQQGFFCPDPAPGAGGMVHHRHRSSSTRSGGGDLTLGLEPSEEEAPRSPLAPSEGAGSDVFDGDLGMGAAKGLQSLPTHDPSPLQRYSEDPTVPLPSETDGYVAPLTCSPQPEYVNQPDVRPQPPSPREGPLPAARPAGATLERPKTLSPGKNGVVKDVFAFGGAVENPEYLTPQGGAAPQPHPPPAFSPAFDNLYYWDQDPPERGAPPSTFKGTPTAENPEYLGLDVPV
The test can be described thus: HER-2 Kinase Assay. The note with it: for inhibition at 1 µM: test concentration of 1 μM; for IC50: value in parentheses. In short, it runs like this: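 Read-out was scintillation counting of 33P incorporated into biotinylated polyGluTyr captured on streptavidin plates. Reactions ran 1 h at 30 °C with GST-fused HER-2 residues 679–1255, 1 μM ATP, Mn2+ and Mg2+ at pH 7.5; data given as percent inhibition at 1 μM, with IC50 where determined.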

A further test deals with T4, EGFR (Homo sapiens, UniProt P00533).
T4 construct: The intracellular portion of EGFR started at nucleotide 2189 (corresponding to amino acid 667) and ended at the termination codon; made in house; host or cells: Sf9 insect cells (baculovirus)
T4 sequence (P00533 669-1210 limits assumed): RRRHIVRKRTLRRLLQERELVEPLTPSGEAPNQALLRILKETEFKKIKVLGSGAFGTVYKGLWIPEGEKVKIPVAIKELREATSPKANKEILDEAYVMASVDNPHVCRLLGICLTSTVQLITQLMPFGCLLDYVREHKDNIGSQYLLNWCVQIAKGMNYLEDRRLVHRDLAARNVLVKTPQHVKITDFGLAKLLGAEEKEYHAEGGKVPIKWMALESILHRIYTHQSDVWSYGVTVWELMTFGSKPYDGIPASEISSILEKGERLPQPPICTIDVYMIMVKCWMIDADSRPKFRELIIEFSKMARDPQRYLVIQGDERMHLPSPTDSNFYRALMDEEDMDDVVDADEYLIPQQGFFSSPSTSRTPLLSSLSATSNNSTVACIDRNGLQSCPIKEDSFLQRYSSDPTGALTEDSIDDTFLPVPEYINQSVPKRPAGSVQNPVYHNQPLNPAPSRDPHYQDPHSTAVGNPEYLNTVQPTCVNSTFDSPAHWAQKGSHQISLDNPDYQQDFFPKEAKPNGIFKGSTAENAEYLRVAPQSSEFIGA
Description: EGFR Kinase Assay. Conditions: GST-EGFR, ATP 5 μM. In short, it runs like this:
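Potency came from triplicate 16-point half-log titrations starting at 200 uM, with IC50 fitted from % inhibition against log concentration, or % inhibition at 2 μM otherwise. Reaction: Sf9-made GST–EGFR cytoplasmic region (aa 667 onward), biotin-polyGluTyr, 5 μM ATP with 33P tracer, pH 8.0 Tris/Mg/vanadate/DTT, 30 °C for 1 h; captured on streptavidin Flashplates and counted.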

T1 sequence (P12931 whole entry): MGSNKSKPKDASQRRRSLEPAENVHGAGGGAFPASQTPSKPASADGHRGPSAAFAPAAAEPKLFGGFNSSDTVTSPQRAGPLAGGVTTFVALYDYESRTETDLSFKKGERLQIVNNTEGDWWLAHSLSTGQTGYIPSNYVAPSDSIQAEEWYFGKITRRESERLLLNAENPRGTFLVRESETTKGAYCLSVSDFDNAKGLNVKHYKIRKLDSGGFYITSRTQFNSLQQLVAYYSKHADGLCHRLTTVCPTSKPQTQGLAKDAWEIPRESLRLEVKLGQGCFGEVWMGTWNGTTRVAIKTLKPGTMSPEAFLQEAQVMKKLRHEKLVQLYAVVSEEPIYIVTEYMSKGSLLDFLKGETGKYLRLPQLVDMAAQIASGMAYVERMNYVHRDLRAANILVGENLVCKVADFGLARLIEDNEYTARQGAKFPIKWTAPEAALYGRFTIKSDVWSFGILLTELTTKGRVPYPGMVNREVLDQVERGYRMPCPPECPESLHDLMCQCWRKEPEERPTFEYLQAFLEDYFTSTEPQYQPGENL

Turning to `CN1CCCC(COc2ccc(NC(=O)c3sc4ncnc5c4c3NC(=O)N5c3ccc(Cl)cc3Cl)cc2)C1` (stereo not shown) [Cpd 32, 5-(2,4-dichloro-phenyl)-4-oxo-4,5-dihydro-3H-1-thia-3,5,6,8-tetraaza-acenaphthylene-2-carboxylic acid [4-(1-methyl-piperidin-3-ylmethoxy)-phenyl]-amide], the inhibition (commonly the drop in the measured response relative to a control, in per cent) at 2 µM against c-Src kinase (human) was found to be 32%; on Lyn kinase (human), 38%. The inhibition at 1 µM against HER-2 came out at 33%. Moreover, inhibition at EGFR was half-maximal at 580 nM (IC50).
For `O=C(Nc1ccc(CN2CCOCC2)cc1)c1sc2ncnc3c2c1NC(=O)N3c1ccc2c(cnn2Cc2cccc(F)c2)c1` [Cpd 175, 5-[1-(3-fluoro-benzyl)-1H-indazol-5-yl]-4-oxo-4,5-dihydro-3H-1-thia-3,5,6,8-tetraaza-acenaphthylene-2-carboxylic acid (4-morpholin-4-ylmethyl-phenyl)-amide], the inhibition at 2 µM at c-Src kinase (human) was -1%; on Lyn kinase (human), 0%. The values for the IC50 at HER-2 and at EGFR were 515 nM and 130 nM, respectively.
The like results for `COc1ccc(N2C(=O)Nc3c(C(=O)Nc4ccc(CCN5CCCCC5)cc4)sc4ncnc2c34)cc1Cl` [Cpd 120, 5-(3-chloro-4-methoxy-phenyl)-4-oxo-4,5-dihydro-3H-1-thia-3,5,6,8-tetraaza-acenaphthylene-2-carboxylic acid [4-(2-piperidin-1-yl-ethyl)-phenyl]-amide] were, in that order, -5%, 0%, 11700 nM and 1080 nM.
The like results for `CN1CCN(Cc2ccc(NC(=O)c3sc4ncnc5c4c3NC(=O)N5c3ccc(Oc4ccccc4)c(F)c3)cc2)CC1` [Cpd 115, 5-(3-fluoro-4-phenoxy-phenyl)-4-oxo-4,5-dihydro-3H-1-thia-3,5,6,8-tetraaza-acenaphthylene-2-carboxylic acid [4-(4-methyl-piperazin-1-ylmethyl)-phenyl]-amide] were, in that order, -1%, 51.2%, 182 nM and 42 nM.
The like results for `NCCCNC(=O)c1sc2ncnc3c2c1NC(=O)N3c1ccc2c(ccn2Cc2cccc(F)c2)c1` [Cpd 142, 5-[1-(3-fluoro-benzyl)-1H-indol-5-yl]-4-oxo-4,5-dihydro-3H-1-thia-3,5,6,8-tetraaza-acenaphthylene-2-carboxylic acid (3-amino-propyl)-amide] were, in that order, 10%, 39%, 381 nM and 11 nM.
Turning to `O=C(Nc1ccccc1)c1sc2ncnc3c2c1NC(=O)N3c1cccc(Br)c1` [Cpd 130, 5-(3-bromo-phenyl)-4-oxo-4,5-dihydro-3H-1-thia-3,5,6,8-tetraaza-acenaphthylene-2-carboxylic acid phenylamide], the inhibition at 2 µM is -3% at c-Src kinase (human) and 32% against Lyn kinase (human). Also, the IC50 (commonly the midpoint of a concentration-inhibition curve) on HER-2 is above 100000 nM; against EGFR, 191 nM.
As for `O=C(NCCCO)c1sc2ncnc3c2c1NC(=O)N3c1ccc(Oc2ccccc2)c(Cl)c1` [Cpd 137, 5-(3-chloro-4-phenoxy-phenyl)-4-oxo-4,5-dihydro-3H-1-thia-3,5,6,8-tetraaza-acenaphthylene-2-carboxylic acid (3-hydroxy-propyl)-amide], the inhibition at 2 µM against c-Src kinase (human) worked out at 26%; at Lyn kinase (human), 43%. Besides, the inhibition at 1 µM against HER-2 was 48%. The IC50 was found to be 1630 nM on HER-2 and 30 nM against EGFR.
As to `O=C(Nc1ccc(CN2CCCCC2)cc1)c1sc2ncnc3c2c1NC(=O)N3c1ccc(Cc2ccccc2)cc1` [Cpd 164, 5-(4-benzyl-phenyl)-4-oxo-4,5-dihydro-3H-1-thia-3,5,6,8-tetraaza-acenaphthylene-2-carboxylic acid (4-piperidin-1-ylmethyl-phenyl)-amide], the inhibition at 2 µM at c-Src kinase (human) was 25%; against Lyn kinase (human) it was 35%. The IC50 on HER-2 was found to be 103 nM; at EGFR it was 11 nM.
In the case of `COc1ccc(N2C(=O)Nc3c(C(=O)Nc4ccc(OCCN5CCOCC5)c(OC)c4)sc4ncnc2c34)c(F)c1` [Cpd 67, 5-(2-fluoro-4-methoxy-phenyl)-4-oxo-4,5-dihydro-3H-1-thia-3,5,6,8-tetraaza-acenaphthylene-2-carboxylic acid [3-methoxy-4-(2-morpholin-4-yl-ethoxy)-phenyl]-amide], the inhibition at 2 µM was -17% on c-Src kinase (human) and 22.5% against Lyn kinase (human). Besides, the inhibition at 1 µM on HER-2 is 51%. Also, the values for the 50% inhibitory concentration (IC50) on HER-2 and at EGFR were 965 nM and 103 nM, respectively.
The like results for `O=C(NCCCO)c1sc2ncnc3c2c1NC(=O)N3c1ccc(F)c(Br)c1` [Cpd 154, 5-(3-bromo-4-fluoro-phenyl)-4-oxo-4,5-dihydro-3H-1-thia-3,5,6,8-tetraaza-acenaphthylene-2-carboxylic acid (3-hydroxy-propyl)-amide] were, in that order, 8%, 7%, 12%, above 10000 nM and 592 nM.
As to `O=C(O)c1sc2ncnc3c2c1NC(=O)N3c1ccc(Br)cc1F` [Cpd 40, 5-(4-bromo-2-fluoro-phenyl)-4-oxo-4,5-dihydro-3H-1-thia-3,5,6,8-tetraaza-acenaphthylene-2-carboxylic acid], the figures for the inhibition at 2 µM against c-Src kinase (human) and at Lyn kinase (human) were 3% and -5%, respectively. For the same compound, the inhibition at 1 µM at HER-2 is -19%. In addition, the IC50 on EGFR turned out to be 7430 nM.
`COc1cc(NC(=O)c2sc3ncnc4c3c2NC(=O)N4c2ccc(Br)cc2F)ccc1OCCN1CCOCC1` [Cpd 39, 5-(4-bromo-2-fluoro-phenyl)-4-oxo-4,5-dihydro-3H-1-thia-3,5,6,8-tetraaza-acenaphthylene-2-carboxylic acid [3-methoxy-4-(2-morpholin-4-yl-ethoxy)-phenyl]-amide]: the inhibition at 2 µM against c-Src kinase (human) is 16%; against Lyn kinase (human), 11%. Further, at HER-2, the inhibition at 1 µM came to 24%. This compound also registered an IC50 at EGFR of 410 nM.
As for `COc1cc(NC(=O)c2sc3ncnc4c3c2NC(=O)N4c2ccc(Oc3ccccc3)cc2)ccc1OCCN1CCOCC1` [Cpd 167, 4-oxo-5-(4-phenoxy-phenyl)-4,5-dihydro-3H-1-thia-3,5,6,8-tetraaza-acenaphthylene-2-carboxylic acid [3-methoxy-4-(2-morpholin-4-yl-ethoxy)-phenyl]-amide], the inhibition at 2 µM came out at 35% on c-Src kinase (human) and 51% at Lyn kinase (human). Moreover, the IC50 at HER-2 was determined as 129 nM; against EGFR, 20 nM.
